# Measurements: US20140377340A1, “HLA-DR BINDING PEPTIDES AND THEIR USES” (priority 2007, published 2014)
# Experiments:
# purified HLA DRB1*1302 = target: T1, purified HLA DRB1*1302 (Homo sapiens, UniProt P01903+P01911, A100E/A169T/K41T/L162R/M171V/P40S/Q125H/Q178H/Q39Y/Q99D/R42S/S66N/T262R/V115G/W38E/Y61H); experiment: HLA-DR radioligand binding inhibition assay, DRB1*1302
# T1 construct: purified from EBV transformed homozygous cell lines or single MHC allele transfected 721.221, C1R, or fibroblast lines; made in house
# Method in brief: (§1)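 First, HLA-DR was purified from lysates on LB3.1 columns. Then 1 μM to 1 nM protein was incubated 2 days with 1-10 nM radiolabeled peptide at pH 4 to 7. Finally, complexes were captured for 3 hours and bound cpm determined.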
# purified HLA DRB1*0901 = target: T2, purified HLA DRB1*0901 (Homo sapiens, UniProt P01903+P01911, A100R/A103E/D57H/D86V/F55Y/F60I/F76Y/I96F/K127E/L162R/M171V/P40D/Q125H/Q99R/R33Q/R42F/S133A/S66N/T210M/V115G/W38K/Y107V/Y59G/Y89S); experiment: HLA-DR radioligand binding inhibition assay, DRB1*0901; conditions: read-out: IC50 nM purified HLA DRB1 *0901; purified HLA DRB1*0901
# T2 construct: purified from EBV transformed homozygous cell lines or single MHC allele transfected 721.221, C1R, or fibroblast lines; made in house
# Protocol: Instead, wells of an opaque white 96-well Optiplate (Packard) are coated with 3 μg (100 μl@ 30 μg/ml) of HLA-specific antibody (Ab) that “capture” complexes of radiolabeled MHC and unlabeled peptide transferred from the molecular binding assay plate in 100 μl of 0.05% NP40/PBS. After a 3-hour incubation period, the supernatant is decanted and scintillation fluid (Microscint 20) added. Captured complexes are then measured on a microplate scintillation and luminescence counter (TopCount NXTTM; Packard).
# HLA-DR purification. Fifteen distinct HLA-DR molecules were used in quantitative assays to measure the binding of peptides to solubilized HLA-DR molecules. […] Briefly, columns of inactivated Sepharose CL4B and Protein A Sepharose were used as pre-columns. HLA-DR molecules were captured by passage of lysates over LB3.1 monoclonal antibody (anti-HLA-DRA) columns. Antibody columns were washed with 10 mM Tris-HCL, pH8.0 with 1% (v/v) NP-40, followed by PBS containing 0.4% (w/v) n-octylglucoside.
# Briefly, 1-10 nM of radiolabeled peptide was co-incubated for 2 days at either room temperature or 37° C. with 1 μM to 1 nM purified HLA-DR molecules in the presence of a cocktail of protease inhibitors. Assays were performed at various pH conditions, ranging from pH 4 to pH 7. […] After incubation, the percentage of HLA-DR-bound radioactivity is determined by capturing HLA-DR/peptide complexes on Optiplates (Packard Instruments, Meriden, Conn.) coated with the LB3.1 antibody and determining bound counts per minute using the TopCount microscintillation counter (Packard Instruments).
# purified HLA DRB1*0405 = target: T3, purified HLA DRB1*0405 (Homo sapiens, UniProt P01903+P01911, A100R/A169T/D86S/F76Y/I96L/K127E/L162R/M171V/N62H/P40V/Q125Y/R42H/S133A/S149N/S66Y/V115G/V209L/W38E); experiment: HLA-DR radioligand binding inhibition assay, DRB1*0405; conditions: read-out: IC50 nM purified HLA DRB1 *0405; purified HLA DRB1*0405
# T3 construct: purified from EBV transformed homozygous cell lines or single MHC allele transfected 721.221, C1R, or fibroblast lines; made in house
# Method in brief: as §1
# purified HLA DRB1*0101 = target: T4, purified HLA DRB1*0101 (Homo sapiens, UniProt P01903+P01911, A100R/D57E/F55L/F60I/F76Y/I96L/L162R/M171V/P40L/Q125E/R42F/V115G/Y59C); experiment: HLA-DR radioligand binding inhibition assay, DRB1*0101; conditions: read-out: IC50 nM purified HLA DRB1 *0101; purified HLA DRB1*0101
# T4 construct: purified from EBV transformed homozygous cell lines or single MHC allele transfected 721.221, C1R, or fibroblast lines; made in house
# Method in brief: as §1
# [1] = tested on: peptide-specific T cells in PBMC; experiment: 10-day interferon-gamma ELIspot with PBMC of breast or ovarian cancer patients and healthy controls; format: cell-based, human; conditions: fraction of breast or ovarian cancer patients with mean T cell values above cutoff (mean + 2 SD of healthy donors)
# Excerpt: Each panel represents a unique peptide and each data point is derived from one individual. The grey box (i.e. cutoff) delineates the region that constitutes the mean and two standard deviations calculated from the normal healthy individuals. The percentages represent the fraction of patients that had mean T cell values above the cutoff. The peptides that are circled are those in which a higher fraction of the patients responded compared to the normal healthy controls. These peptides are considered to be the best vaccine candidates. However, it is clear that the rigidness of this approach could potentially result in many false negatives. […] Despite this, we identified 5 candidates to move forward. The fidelity of this approach is evident from a prior study which has already shown that a HER-2/neu peptide, p884-899, which encompasses the binding motif of p885, is an HLA-DR4 epitope.
# Enzyme-linked immunosorbent spot assay. A 10-day ELlspot for detecting low-frequency T cells was used to determine reactivity to the tumor antigen peptides (Table 1) as described (Knutson K L et al. J Clin Onc 2006;24: 4254-61). […] PMA/Ionomycin and the CEF pool were used as positive non-tumor related controls as previously described (Knutson, 2006).
# Using predictive algorithms discussed above, candidate HLA-DR1-binding epitopes were identified. […] An interferon-gamma ELIspot assay was used to assess immunity to the indiscriminate binding peptides in 48 patients with either breast or ovarian cancer and 18 healthy controls.
# Using an ELlspot assay with a limit of detection of approximately […], patient-derived PBMC were screened for reactivity against all of the HLA-DR binding peptides.
# [2] = tested on: 15 different HLA-DR molecules; experiment: HLA-DR binding assays, panel of 15 different HLA-DR molecules (breadth of binding); conditions: number of the 15 HLA-DR molecules bound (binders: 1000 nM or better)
# [3] = tested on: short term T cell lines from breast or ovarian cancer patients; experiment: IFN-γ ELISpot analysis of short term T cell lines (peptide versus protein fragment; natural processing); format: cell-based, human; conditions: T cell lines respond to culture peptide and to protein fragment; FIGS. 5 and 6
# Excerpt: IFN-γ ELISpot analysis of short term T cell lines generated against HER-2/neu peptides, p53 (Panel A), p83 (Panel B), p88 (Panel C) and p885 (Panel D). […] Each bar is the mean (s.e.m.) of three replicates.
# FIG. 6 is identical to FIG. 5 except that the results were obtained using IGFBP-2 derived helper epitopes.
IC50 (purified HLA DRB1*1302) [nM],IC50 (purified HLA DRB1*0901) [nM],IC50 (purified HLA DRB1*0405) [nM],IC50 (purified HLA DRB1*0101) [nM],Total XRN [2],Structure (SMILES),Percent of patients with responses [1] [%],naturally processed and presented antigen [3]
15,5780,10500,65,–,CC[C@H](C)[C@H](NC(=O)[C@H](CCCCN)NC(=O)[C@@H](NC(=O)[C@H](Cc1c[nH]cn1)NC(=O)[C@H](CC(N)=O)NC(=O)[C@@H]1CCCN1C(=O)[C@H](CO)NC(=O)[C@H](CCCCN)NC(=O)[C@@H](NC(=O)[C@H](CC(C)C)NC(=O)[C@@H](NC(=O)[C@H](CC(N)=O)NC(=O)[C@H](CCCNC(=N)N)NC(=O)[C@H](C)N)C(C)C)C(C)C)C(C)C)C(=O)N[C@H](C(=O)O)[C@@H](C)O,–,–
–,–,–,–,12,CC(C)C[C@H](NC(=O)[C@H](CO)NC(=O)[C@H](C)NC(=O)[C@H](CC(N)=O)NC(=O)[C@@H](NC(=O)[C@@H]1CCCN1C(=O)[C@H](CC(C)C)NC(=O)[C@H](Cc1ccc(O)cc1)NC(=O)[C@@H](NC(=O)[C@H](CC(C)C)NC(=O)[C@H](CCC(=O)O)NC(=O)[C@H](CC(C)C)NC(=O)[C@@H](N)CC(N)=O)[C@@H](C)O)[C@@H](C)O)C(=O)N[C@@H](CO)C(=O)N[C@@H](Cc1ccccc1)C(=O)O [Peptide 9019.0030],15,naturally processed and presented antigens
–,–,–,–,13,CC[C@H](C)[C@H](NC(=O)[C@@H]1CCCN1)C(=O)N[C@@H](CCCCN)C(=O)N[C@@H](Cc1c[nH]c2ccccc12)C(=O)N[C@@H](CCSC)C(=O)N[C@@H](C)C(=O)N[C@@H](CC(C)C)C(=O)N[C@@H](CCC(=O)O)C(=O)N[C@@H](CO)C(=O)N[C@H](C(=O)N[C@@H](CC(C)C)C(=O)N[C@@H](CCCNC(=N)N)C(=O)N[C@@H](CCCNC(=N)N)C(=O)N[C@@H](CCCNC(=N)N)C(=O)N[C@@H](Cc1ccccc1)C(=O)O)[C@@H](C)CC [Peptide 9019.0087],25,naturally processed and presented antigens

Structure (SMILES),IC50 (purified HLA DRB1*1302) [nM],IC50 (purified HLA DRB1*0901) [nM],IC50 (purified HLA DRB1*0405) [nM],IC50 (purified HLA DRB1*0101) [nM],Total XRN [2],Percent of patients with responses [1] [%],naturally processed and presented antigen [3]
"CC[C@H](C)[C@H](NC(=O)[C@H](Cc1c[nH]cn1)NC(=O)[C@H](CC(C)C)NC(=O)[C@H](CO)NC(=O)[C@H](Cc1ccc(O)cc1)NC(=O)[C@H](CC(C)C)NC(=O)[C@H](Cc1c[nH]cn1)NC(=O)[C@H](CCC(=O)O)NC(=O)[C@H](CC(C)C)NC(=O)[C@@H]1CCCN1C(=O)CNC(=O)[C@H](CCCNC(=N)N)NC(=O)[C@@H](N)CCC(=O)O)C(=O)N1CCC[C@H]1C(=O)N[C@@H](CC(N)=O)C(=O)O [Peptide 9019.0190, EROPLEHLYSLHIPN]",–,–,–,–,8,23,naturally processed peptides
